Assay [1] in a line: Stage specific inhibitors, Vaccinia infected cells, mCherry fluorescence, dry powder confirmation (AID 1053207). The following applies: Vaccinia-infected cells, mCherry/Venus stage reporter fluorescence; for max activity: measured here: Venus reporter max activity.
The subject of assay [2] is Vaccinia-infected cells, mCherry/Venus stage reporter fluorescence. The description is as above.
The mark [3] stands for this setting: measured here: mCherry reporter channel.

SMILES strings stand for the structures. Active and inactive are the calls of the source. The rule behind the calls is not given here. Where only a bound is given, the exact number is not on record here.

As usually defined, the AC50 is the concentration at which the activity in the assay is half-maximal.

On to `C[C@@H](O)C#Cc1ccc2c(c1)O[C@@H](CN(C)Cc1ccc(-c3ccccc3Cl)cc1)[C@@H](C)CN([C@@H](C)CO)S2(=O)=O`, for which, in assay [1] (at 2.6 µM), the max activity is 145%. For the same compound, the AC50 in assay [2] and in assay [2] (setting [3]) was 1190 nM each time.

For `Cc1ccc(-c2ccc(CN(C)C[C@@H]3Oc4cc(C#C[C@@H](C)O)ccc4S(=O)(=O)N([C@@H](C)CO)C[C@@H]3C)cc2)cc1`, in assay [1] (at 1.2 µM), the max activity amounted to 122%. For the same compound, the AC50 in assay [2] and in assay [2] (setting [3]) was 1250 nM in each case.

On to `Cc1cccc(-c2ccc(CN(C)C[C@@H]3Oc4cc(C#C[C@@H](C)O)ccc4S(=O)(=O)N([C@@H](C)CO)C[C@@H]3C)cc2)c1`, for which the max activity in assay [1] (at 2.6 µM) was found to be 140%. In addition, the AC50 in assay [2] and in assay [2] (setting [3]) was 1660 nM in each case.

As for `C[C@@H](O)C#Cc1ccc2c(c1)O[C@@H](CN(C)S(=O)(=O)c1ccc(-c3ccccc3)cc1)[C@@H](C)CN([C@@H](C)CO)S2(=O)=O`, the activity change, negative = inhibition in assay [1] (at 19.5 µM (top of the series)) is -18.5% (inactive). In addition, the max activity in assay [1] (at 10 µM) is -14.6%. The concentration at half-maximal activity (AC50) in assay [2] (measured here: Venus reporter channel) and in assay [2] (setting [3]) was > 39000 nM each time.

On to `Cc1ccccc1-c1ccc(CN(C)C[C@@H]2Oc3cc(C#C[C@@H](C)O)ccc3S(=O)(=O)N([C@@H](C)CO)C[C@@H]2C)cc1`, for which the max activity in assay [1] (at 2.6 µM) worked out at 157%. Further, the concentration at half-maximal activity (AC50) in assay [2] and in assay [2] (setting [3]) was 1230 nM throughout.

Regarding `C[C@@H](O)C#Cc1ccc2c(c1)O[C@@H](CN(C)Cc1ccc(-c3ccccc3)cc1)[C@@H](C)CN([C@@H](C)CO)S2(=O)=O`, the max activity in assay [1] (at 2.6 µM) was found to be 115%. Moreover, the concentration at half-maximal activity (AC50) in assay [2] and in assay [2] (setting [3]) was 2350 nM each time.
